Source: the NIST ThermoML archive (doi:10.1016/j.fluid.2010.12.003)

Assay: xn = mol fraction of the nth substance listed
Settings: 101 kPa, Fluid (supercritical or subcritical phases), Taylor dispersion method, x1 = 0

SMILES: COc1cc(-c2[o+]c3cc(O)cc(O)c3cc2O[C@@H]2O[C@H](CO)[C@@H](O)[C@H](O)[C@H]2O)ccc1O.[Cl-] + O
- binary diffusion coefficient (298 K): 2.19e-10 m2/s
- binary diffusion coefficient (312 K): 2.67e-10 m2/s
- binary diffusion coefficient (332 K): 3.65e-10 m2/s
- binary diffusion coefficient (352 K): 4.52e-10 m2/s
- binary diffusion coefficient (372 K): 5.39e-10 m2/s
- binary diffusion coefficient (392 K): 6.18e-10 m2/s
- binary diffusion coefficient (413 K): 6.49e-10 m2/s

SMILES: Oc1cc(O)c2c(c1)O[C@H](c1ccc(O)c(O)c1)[C@H](O)C2 + O
- binary diffusion coefficient (298 K): 1.97e-11 m2/s
- binary diffusion coefficient (312 K): 2.66e-11 m2/s
- binary diffusion coefficient (332 K): 3.38e-11 m2/s
- binary diffusion coefficient (352 K): 3.89e-11 m2/s
- binary diffusion coefficient (372 K): 4.06e-11 m2/s
- binary diffusion coefficient (392 K): 5.19e-11 m2/s

SMILES: O=C(O)c1cc(O)c(O)c(O)c1 [3,4,5-trihydroxybenzoic acid] + O
- binary diffusion coefficient (298 K): 2.5e-10 m2/s
- binary diffusion coefficient (312 K): 2.87e-10 m2/s
- binary diffusion coefficient (332 K): 3.3e-10 m2/s
- binary diffusion coefficient (352 K): 4.07e-10 m2/s

SMILES: O=C(O)c1ccc(O)c(O)c1 [3,4-dihydroxybenzoic acid] + O
- binary diffusion coefficient (298 K): 2.46e-10 m2/s
- binary diffusion coefficient (312 K): 3.2e-10 m2/s
- binary diffusion coefficient (332 K): 3.84e-10 m2/s
- binary diffusion coefficient (352 K): 4.15e-10 m2/s
- binary diffusion coefficient (372 K): 5.12e-10 m2/s
- binary diffusion coefficient (392 K): 5.27e-10 m2/s

SMILES: Oc1cc(O)c2c(c1)O[C@H](c1ccc(O)c(O)c1)[C@@H](O)C2 [(+)-catechin] + O
- binary diffusion coefficient (298 K): 2.33e-10 m2/s
- binary diffusion coefficient (312 K): 3.07e-10 m2/s
- binary diffusion coefficient (332 K): 3.76e-10 m2/s
- binary diffusion coefficient (352 K): 4.05e-10 m2/s
- binary diffusion coefficient (372 K): 4.25e-10 m2/s
- binary diffusion coefficient (392 K): 4.78e-10 m2/s
- binary diffusion coefficient (413 K): 5.3e-10 m2/s

SMILES: O=c1c(O[C@@H]2O[C@H]([C@H](O)CO)[C@H](O)[C@H]2O)c(-c2ccc(O)c(O)c2)oc2cc(O)cc(O)c12 [isoquercitrin] + O
- binary diffusion coefficient (298 K): 1.66e-10 m2/s
- binary diffusion coefficient (312 K): 2.19e-10 m2/s
- binary diffusion coefficient (332 K): 2.77e-10 m2/s
- binary diffusion coefficient (352 K): 3.07e-10 m2/s
- binary diffusion coefficient (372 K): 3.51e-10 m2/s

SMILES: COc1cc(-c2[o+]c3cc(O)cc(O[C@@H]4O[C@H](CO)[C@@H](O)[C@H](O)[C@H]4O)c3cc2O[C@@H]2O[C@H](CO)[C@@H](O)[C@H](O)[C@H]2O)cc(OC)c1O.[Cl-] [malvidin-3,5-diglucoside chloride] + O
- binary diffusion coefficient (298 K): 2.16e-10 m2/s
- binary diffusion coefficient (312 K): 2.71e-10 m2/s
- binary diffusion coefficient (332 K): 3.6e-10 m2/s
- binary diffusion coefficient (352 K): 4.41e-10 m2/s
- binary diffusion coefficient (372 K): 5.15e-10 m2/s
- binary diffusion coefficient (392 K): 5.3e-10 m2/s
- binary diffusion coefficient (413 K): 5.79e-10 m2/s
